Measurements taken from patent US20260035355A1, “COMPOUND, PHARMACEUTICAL COMPOSITION COMPRISING SAME, AND USE THEREOF” (SHENZHEN ZHONGGE BIOLOGICAL TECHNOLOGY CO., LTD., priority 2022, published 2026).

Key:
model animals = details: oral administration for three days; cited from earlier work
healthy participants = details: Phase 1, healthy participants; cited from earlier work
[1] = Evaluation of cell membrane permeability; assay type: in vitro ADME; details: 10 μM, 120 minutes; for efflux ratio at 120 min, 10 μM: read-out: Efflux Ratio (Papp B to A/Papp A to B); for Papp A→B at 120 min, 10 μM / Papp B→A at 120 min, 10 μM: transport buffer (HBSS+BSA), 37° C.
Protocol: (§1) The test compounds were diluted from 10 mM stock solutions to a concentration of 10 μM using the transport buffer (HBSS+BSA) and applied to the apical or basolateral side of the cell monolayer. After the incubation at 37° C., 5% CO2 and 95% relative humidity for 120 minutes, the permeability of the test compounds in the A to B direction or the B to A direction was dually determined. In addition, the efflux ratio (Papp B to A/Papp A to B) of each compound was determined. The test substances and reference substances were quantitatively analyzed by the LC-MS/MS method based on the analyte/IS peak area ratio.

eIF2B = biological target: T1, eIF2B (Homo sapiens, UniProt P49770+Q9UI10); test: ATF4-Luc assay (ATF4 luciferase reporter, thapsigargin-induced stress); assay type: cell-based; details: HEK293T/17-ATF4 uORF-Luc-Puro monoclonal cells, 50 nM thapsigargin, incubated for 6 hours
T1 construct: endogenous in cells; host or cells: HEK293T/17-ATF4 uORF-Luc-Puro monoclonal cells
From the text: The ATF4 luciferase reporter plasmid consists of two parts, i.e., the 5′ untranslated region sequence of the ATF4 gene and the luciferase coding sequence. Specifically, the ATF4 5′ untranslated region sequence (NCBI database number BC022088.2) containing two upstream open reading frames (uORFs), and the firefly luciferase encoding gene were cloned into the pLVX-Puro vector (YouBio, VT1465). The packaging plasmids of lentivirus were psPAX2 (YouBio, VT1444) and pMD2.G (YouBio, VT1443). 650,000 HEK293T cells were seeded per well of a 6-well plate and cultured overnight in a 5% CO2 incubator. The cells were transfected with the packaged lentivirus for 48 hours and then centrifuged, and the supernatant was discarded. The medium was replaced and changed to the DMEM complete medium containing 0.8 μg/ml puromycin, and the cells were resuspended and then cultured. After one week of cell screening with puromycin, the surviving cells were HEK293T-ATF4 uORF-Luc-Puro polyclonal cells. 200 polyclonal cells were taken and subjected to limiting gradient dilution by using a 96-well plate, so as to obtain monoclonal cells.
The specific method for screening the monoclonal cells involves: placing the 200 polyclonal cells in well A1 of the 96-well plate; step one: performing gradient dilution from columns A1 to H1 at a ratio of 1:2; step two: performing gradient dilution from rows A to H, with each row from wells 1 to 12 at a ratio of 1:2; marking the wells with a theoretical cell number less than 0.5 and observing one by one under a microscope; marking the wells with only one cell; and culturing the cells for two weeks to obtain the monoclonal cells.
By using this cell line and the cold fluorescence readings, the translational regulation of ATF4 can be detected, and the activity of eIF2B activated by the compounds can be tested.
The specific experimental process is as follows: 6000 HEK293T/17-ATF4 uORF-Luc-Puro monoclonal cells were plated in a 384-well plate and allowed to adhere overnight. The test compounds were dissolved in DMSO and diluted to 10 different concentrations, which were respectively added together with 50 nM thapsigargin to the cell culture medium and incubated for 6 hours, wherein the thapsigargin was used to cause cellular stress and upregulate the protein translation of ATF4. Six hours after the addition, the cells were lysed using the One-Glo Luciferase Assay Kit (Promega #E6120), and then the cold fluorescence values were read using the LUM program of the EnVision 2104 plate reader.
EC50 was calculated based on the fluorescence values at 9 concentrations (0.1 nM, 0.3 nM, 1.0 nM, 3.0 nM, 10.0 nM, 30.0 nM, 100.0 nM, 300.0 nM and 1000.0 nM) of each compound and recorded in Table 1.
The ATF4 reporter expression was calculated as follows:
ATF4 reporter expression=(ave_sample-ave_vc)/(ave_pc-ave_vc)
where ave_vc represents the average signal value of negative controls, ave_pc represents the average signal value of positive controls, and ave_sample represents the average signal value of samples.
The dose-response curves were fitted, and the EC50 values were calculated.
The nonlinear regression log(inhibitor) vs. response—variable slope (four parameters) method of GraphPad 9 software was used to fit the corresponding relationship between the ATF4 reporter expression and the compound concentration.
The X-axis represents the log value of the compound concentration; and the Y-axis represents the ATF4 reporter expression.

cell monolayer = test: Evaluation of cell membrane permeability; assay type: in vitro ADME
Protocol: as §1

[2] = Pharmacokinetic evaluation in mice; assay type: in vivo
Protocol: The test compounds were dissolved in vehicles to prepare clear solutions or homogeneous suspensions. Three mice were placed in each group and received an intravenous (IV) administration via the tail vein at 1 mg/kg and an oral (PO) administration at 30 mg/kg. Blood samples were collected at 0.083 h, 0.25 h, 0.5 h, 1 h, 2 h, 4 h, 8 h, and 24 h after the intravenous administration, and at 0.25 h, 0.5 h, 1 h, 2 h, 4 h, 6 h, 8 h, and 24 h after the oral administration. Plasma samples were centrifuged, and the supernatant was collected to prepare samples, which were then quantitatively analyzed by LC/MS/MS.

T1 sequence (P49770 whole entry): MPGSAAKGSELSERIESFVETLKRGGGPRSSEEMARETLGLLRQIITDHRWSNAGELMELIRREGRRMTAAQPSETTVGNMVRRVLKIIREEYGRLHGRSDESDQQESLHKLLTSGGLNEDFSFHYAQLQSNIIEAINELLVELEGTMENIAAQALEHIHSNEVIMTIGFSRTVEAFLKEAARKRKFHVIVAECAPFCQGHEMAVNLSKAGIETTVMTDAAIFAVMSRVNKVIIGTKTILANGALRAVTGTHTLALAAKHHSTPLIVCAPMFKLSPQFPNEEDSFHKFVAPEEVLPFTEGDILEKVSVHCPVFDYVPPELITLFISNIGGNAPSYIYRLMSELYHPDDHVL
T1 sequence (Q9UI10 whole entry): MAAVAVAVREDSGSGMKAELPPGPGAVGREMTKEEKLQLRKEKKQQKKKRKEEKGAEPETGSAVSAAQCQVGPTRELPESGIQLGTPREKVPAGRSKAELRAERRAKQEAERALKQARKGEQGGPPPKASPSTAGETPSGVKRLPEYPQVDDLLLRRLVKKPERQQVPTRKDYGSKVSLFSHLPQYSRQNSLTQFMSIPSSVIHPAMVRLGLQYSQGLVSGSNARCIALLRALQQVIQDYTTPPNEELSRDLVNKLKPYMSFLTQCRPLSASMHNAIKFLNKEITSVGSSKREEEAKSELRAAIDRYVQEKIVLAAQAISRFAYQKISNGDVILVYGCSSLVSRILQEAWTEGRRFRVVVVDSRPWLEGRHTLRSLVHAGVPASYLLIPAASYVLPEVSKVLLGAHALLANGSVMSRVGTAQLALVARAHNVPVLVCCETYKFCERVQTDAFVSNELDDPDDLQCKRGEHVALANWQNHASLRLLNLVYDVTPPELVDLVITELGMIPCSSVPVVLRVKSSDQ
T1 sequence (Q14232 whole entry partner): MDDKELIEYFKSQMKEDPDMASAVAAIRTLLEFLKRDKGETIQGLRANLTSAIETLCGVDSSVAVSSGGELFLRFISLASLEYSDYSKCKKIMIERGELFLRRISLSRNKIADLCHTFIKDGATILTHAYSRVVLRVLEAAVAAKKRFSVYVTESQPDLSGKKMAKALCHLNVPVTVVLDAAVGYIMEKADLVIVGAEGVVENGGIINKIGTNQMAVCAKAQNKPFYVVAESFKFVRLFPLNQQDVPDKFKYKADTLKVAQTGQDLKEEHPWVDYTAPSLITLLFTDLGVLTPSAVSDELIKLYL
T1 sequence (Q9NR50 whole entry partner): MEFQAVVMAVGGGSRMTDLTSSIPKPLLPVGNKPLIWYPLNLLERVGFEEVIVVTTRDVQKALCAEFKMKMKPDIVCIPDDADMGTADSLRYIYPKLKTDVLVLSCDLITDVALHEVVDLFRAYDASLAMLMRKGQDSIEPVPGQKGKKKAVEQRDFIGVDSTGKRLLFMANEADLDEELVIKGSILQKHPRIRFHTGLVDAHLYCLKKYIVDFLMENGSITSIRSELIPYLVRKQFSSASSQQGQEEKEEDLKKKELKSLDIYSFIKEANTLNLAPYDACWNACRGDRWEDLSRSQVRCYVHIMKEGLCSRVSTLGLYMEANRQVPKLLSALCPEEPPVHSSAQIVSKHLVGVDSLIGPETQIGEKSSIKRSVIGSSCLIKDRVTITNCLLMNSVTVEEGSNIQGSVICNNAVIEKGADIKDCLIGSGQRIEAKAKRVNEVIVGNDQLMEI
T1 sequence (Q13144 whole entry partner): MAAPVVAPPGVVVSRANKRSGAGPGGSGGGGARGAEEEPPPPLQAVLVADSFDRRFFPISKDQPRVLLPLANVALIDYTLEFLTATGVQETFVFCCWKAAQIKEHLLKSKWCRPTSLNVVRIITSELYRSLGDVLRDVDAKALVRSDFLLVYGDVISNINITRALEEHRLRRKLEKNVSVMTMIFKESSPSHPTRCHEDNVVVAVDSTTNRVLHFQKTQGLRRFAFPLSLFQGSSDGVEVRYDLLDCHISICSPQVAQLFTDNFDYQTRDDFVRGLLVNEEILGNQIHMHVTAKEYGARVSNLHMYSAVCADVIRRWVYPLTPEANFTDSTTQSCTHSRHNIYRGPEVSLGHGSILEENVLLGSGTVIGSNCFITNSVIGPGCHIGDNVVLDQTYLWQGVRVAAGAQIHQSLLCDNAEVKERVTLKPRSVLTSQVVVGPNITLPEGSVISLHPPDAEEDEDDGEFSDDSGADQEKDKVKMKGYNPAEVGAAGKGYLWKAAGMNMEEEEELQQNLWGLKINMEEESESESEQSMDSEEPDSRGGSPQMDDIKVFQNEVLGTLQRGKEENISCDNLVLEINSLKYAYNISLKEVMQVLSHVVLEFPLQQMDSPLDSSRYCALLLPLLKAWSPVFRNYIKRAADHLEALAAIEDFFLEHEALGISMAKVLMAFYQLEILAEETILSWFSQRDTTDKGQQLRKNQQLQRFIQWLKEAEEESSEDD

NC(CO)(CO)CO.O=C(COc1ccc(Cl)c(F)c1)NC12CCC(NC(=O)COc3ccc(Cl)c(F)c3)(CC1)[C@@H](OCOP(=O)([O-])O)C2.[Na+] [ABBV-CLS-7262]
brain function (in words) (model animals): restored to youthful levels

O=C(COc1ccc(Cl)cc1)NC12CC(c3nnc([C@H]4C[C@@H](OC(F)(F)F)C4)o3)(C1)C2 [DNL-343]
safety and tolerability (in words) (healthy participants): demonstrated its safety and tolerability

C[C@H]1O[C@@H](O[C@H]2[C@@H](O)C[C@H](O[C@H]3[C@@H](O)C[C@H](O[C@H]4CC[C@@]5(C)[C@H](CC[C@@H]6[C@@H]5C[C@@H](O)[C@]5(C)[C@@H](C7=CC(=O)OC7)CC[C@]65O)C4)O[C@@H]3C)O[C@@H]2C)C[C@H](O)[C@@H]1O [Digoxin]
efflux ratio at 120 min, 10 μM [1]: 44.7
Papp A→B at 120 min, 10 μM [1]: 0.25 ×10⁻⁶ cm/s
Papp B→A at 120 min, 10 μM [1]: 11.2 ×10⁻⁶ cm/s

O=C(COc1ccc(Cl)c(F)c1)NC1CC12CCN(C(=O)c1cnc(C(F)F)cn1)CC2 (centres unmarked) [I-1]
EC50 (eIF2B): > 100 nM

O=C(COc1ccc(Cl)c(F)c1)NC1CC12CCN(C(=O)c1cc3cc(Cl)ccc3o1)CC2 (centres unmarked) [I-2]
EC50 (eIF2B): > 100 nM

O=C(COc1ccc(Cl)c(F)c1)NC1CC12CCN(C(=O)[C@H]1CNc3cc(Cl)ccc3O1)CC2 (some centres unmarked) [I-3]
EC50 (eIF2B): > 100 nM

CN1C[C@H](C(=O)N2CCC3(CC2)CC3NC(=O)COc2ccc(Cl)c(F)c2)Oc2ccc(Cl)cc21 (some centres unmarked) [I-4]
EC50 (eIF2B): > 100 nM

O=C(COc1ccc(Cl)c(F)c1)NC1CC12CCN(NC(=O)COc1ccc(Cl)c(F)c1)CC2 (centres unmarked) [I-5]
EC50 (eIF2B): > 100 nM

O=C(COc1ccc(Cl)c(F)c1)NC1CC12CCN(NC(=O)c1cc3cc(Cl)ccc3o1)CC2 (centres unmarked) [I-6]
EC50 (eIF2B): > 100 nM

O=C(COc1ccc(Cl)c(F)c1)NC1CC12CCN(NC(=O)[C@H]1CNc3cc(Cl)ccc3O1)CC2 (some centres unmarked) [I-7]
EC50 (eIF2B): > 100 nM

CN1C[C@H](C(=O)NN2CCC3(CC2)CC3NC(=O)COc2ccc(Cl)c(F)c2)Oc2ccc(Cl)cc21 (some centres unmarked) [I-8]
EC50 (eIF2B): > 100 nM

O=C(NC1CC12CCN(C(=O)c1cc3cc(Cl)ccc3o1)CC2)c1cc2cc(Cl)ccc2o1 (centres unmarked) [I-9]
EC50 (eIF2B): > 100 nM

O=C(NC1CC12CCN(NC(=O)c1cc3cc(Cl)ccc3o1)CC2)c1cc2cc(Cl)ccc2o1 (centres unmarked) [I-10]
EC50 (eIF2B): 10 to 100 nM

O=C(COc1ccc(Cl)c(F)c1)NC1COC2(C1)CN(C(=O)c1cnc(C(F)F)cn1)C2 (centres unmarked) [II-10]
EC50 (eIF2B): > 100 nM

O=C(COc1ccc(Cl)c(F)c1)NC1COC2(C1)CN(C(=O)COc1ccc(Cl)c(F)c1)C2 (centres unmarked) [II-11]
EC50 (eIF2B): > 100 nM

O=C(COc1ccc(Cl)c(F)c1)NC1COC2(C1)CN(C(=O)c1cc3cc(Cl)ccc3o1)C2 (centres unmarked) [II-12]
EC50 (eIF2B): 10 to 100 nM

O=C(COc1ccc(Cl)c(F)c1)NC1COC2(C1)CN(C(=O)[C@H]1CNc3cc(Cl)ccc3O1)C2 (some centres unmarked) [II-13]
EC50 (eIF2B): > 100 nM

CN1C[C@H](C(=O)N2CC3(CC(NC(=O)COc4ccc(Cl)c(F)c4)CO3)C2)Oc2ccc(Cl)cc21 (some centres unmarked) [II-14]
EC50 (eIF2B): > 100 nM

O=C(COc1ccc(Cl)c(F)c1)NC1CC2(C1)CC(c1nnc(N3CC(OC(F)(F)F)C3)o1)C2 (centres unmarked) [III-1]
EC50 (eIF2B): < 10 nM
efflux ratio at 120 min, 10 μM [1]: 1.05
Papp A→B at 120 min, 10 μM [1]: 17.7 ×10⁻⁶ cm/s
Papp B→A at 120 min, 10 μM [1]: 18.6 ×10⁻⁶ cm/s
P-glycoprotein substrate (in words) (cell monolayer): not P-glycoprotein substrates
cell membrane permeability (in words) (cell monolayer): good cell membrane permeability
pharmacokinetic properties in mice (in words) ([2]; mouse, in vivo): excellent pharmacokinetic properties in mice
AUC(0-inf) ([2]; plasma, mouse IV 1 mg/kg): 2230 ng·h/mL
C0 ([2]; plasma, mouse IV 1 mg/kg): 1340 ng/mL
clearance ([2]; plasma, mouse IV 1 mg/kg): 7.5 mL/min/kg
half-life ([2]; plasma, mouse IV 1 mg/kg): 2.07 h
Vd ([2]; plasma, mouse IV 1 mg/kg, read-out: Vss): 1.18 L/kg
AUC(0-inf) ([2]; plasma, mouse PO 30 mg/kg): 111000 ng·h/mL
Cmax ([2]; plasma, mouse PO 30 mg/kg): 21500 ng/mL
Tmax ([2]; plasma, mouse PO 30 mg/kg): 1.33 h
bioavailability ([2]; plasma, mouse PO 30 mg/kg): 177%
half-life ([2]; plasma, mouse PO 30 mg/kg): 1.93 h

O=C(COc1ccc(Cl)c(F)c1)NC1CC2(C1)CC(NC(=O)COc1ccc(Cl)c(F)c1)C2 (centres unmarked) [III-10]
EC50 (eIF2B): > 100 nM
